Reference: PubChem BioAssay (NCI)
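At the GI50, growth is halved. TGI denotes the concentration required for complete inhibition of growth.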

Experiments:
Test in all cases: NCI tumour cell line growth inhibition, 384-well format
MDA-MB-468 breast = tested on: MDA-MB-468 breast
SF-539 CNS = tested on: SF-539 CNS
SK-MEL-5 melanoma = tested on: SK-MEL-5 melanoma
OVCAR-4 ovarian = tested on: OVCAR-4 ovarian
MCF7 breast = tested on: MCF7 breast
T-47D breast = tested on: T-47D breast
EKVX NSCLC = tested on: EKVX NSCLC
OVCAR-5 ovarian = tested on: OVCAR-5 ovarian
M14 melanoma = tested on: M14 melanoma
LOX IMVI melanoma = tested on: LOX IMVI melanoma
KM12 colon = tested on: KM12 colon
HL-60(TB) leukemia = tested on: HL-60(TB) leukemia
BT-549 breast = tested on: BT-549 breast
SNB-19 CNS = tested on: SNB-19 CNS
NCI-H226 lung = tested on: NCI-H226 lung
IGROV1 ovarian = tested on: IGROV1 ovarian
SR leukemia = tested on: SR leukemia
NCI-H322M lung = tested on: NCI-H322M lung
SK-MEL-28 melanoma = tested on: SK-MEL-28 melanoma
MDA-MB-231 breast = tested on: MDA-MB-231 breast
CCRF-CEM leukemia = tested on: CCRF-CEM leukemia
SW-620 colon = tested on: SW-620 colon
HCC-2998 colon = tested on: HCC-2998 colon
PC-3 prostate = tested on: PC-3 prostate
UO-31 renal = tested on: UO-31 renal
COLO 205 colon = tested on: COLO 205 colon
OVCAR-3 ovarian = tested on: OVCAR-3 ovarian
A498 renal = tested on: A498 renal
NCI-H522 lung = tested on: NCI-H522 lung
HT29 colon = tested on: HT29 colon
HS 578T breast = tested on: HS 578T breast
UACC-62 melanoma = tested on: UACC-62 melanoma
SK-OV-3 ovarian = tested on: SK-OV-3 ovarian
HCT-15 colon = tested on: HCT-15 colon
CAKI-1 renal = tested on: CAKI-1 renal
NCI-H23 lung = tested on: NCI-H23 lung
ACHN renal = tested on: ACHN renal
K-562 leukemia = tested on: K-562 leukemia
HOP-92 NSCLC = tested on: HOP-92 NSCLC
OVCAR-8 ovarian = tested on: OVCAR-8 ovarian
RPMI-8226 leukemia = tested on: RPMI-8226 leukemia
MALME-3M melanoma = tested on: MALME-3M melanoma
TK-10 renal = tested on: TK-10 renal
MDA-MB-435 melanoma = tested on: MDA-MB-435 melanoma
NCI-H460 NSCLC = tested on: NCI-H460 NSCLC
SF-268 CNS = tested on: SF-268 CNS
SN12C renal = tested on: SN12C renal
RXF 393 renal = tested on: RXF 393 renal
NCI/ADR-RES ovarian = tested on: NCI/ADR-RES ovarian
786-0 renal = tested on: 786-0 renal
DU-145 prostate = tested on: DU-145 prostate
HOP-62 NSCLC = tested on: HOP-62 NSCLC
SF-295 CNS = tested on: SF-295 CNS
MOLT-4 leukemia = tested on: MOLT-4 leukemia
A549 NSCLC = tested on: A549 NSCLC
SNB-75 CNS = tested on: SNB-75 CNS
UACC-257 melanoma = tested on: UACC-257 melanoma

SMILES: Cc1nc(-c2cnc(NC(C)C)n(C)c2=O)ccc1Oc1ccnc(-c2cnn(C)c2)c1
- GI50 (MDA-MB-468 breast): 2.73 µM
- TGI (MDA-MB-468 breast): 6.33 µM
- GI50 (SF-539 CNS): 12.4 µM
- TGI (SF-539 CNS): 25.2 µM
- GI50 (SK-MEL-5 melanoma): 4.46 µM
- TGI (SK-MEL-5 melanoma): 16.2 µM
- GI50 (OVCAR-4 ovarian): 13.6 µM
- TGI (OVCAR-4 ovarian): 50.8 µM
- GI50 (MCF7 breast): 9.45 µM
- TGI (MCF7 breast): > 100 µM
- GI50 (T-47D breast): 5.73 µM
- TGI (T-47D breast): 28.7 µM
- GI50 (EKVX NSCLC): 18.1 µM
- TGI (EKVX NSCLC): > 100 µM
- GI50 (OVCAR-5 ovarian): 17.2 µM
- TGI (OVCAR-5 ovarian): 34.9 µM
- GI50 (M14 melanoma): 7.99 µM
- TGI (M14 melanoma): 27.3 µM
- GI50 (LOX IMVI melanoma): 17.9 µM
- TGI (LOX IMVI melanoma): 71.6 µM
- GI50 (KM12 colon): 4.67 µM
- TGI (KM12 colon): 33.9 µM
- GI50 (HL-60(TB) leukemia): 2.63 µM
- TGI (HL-60(TB) leukemia): 6.27 µM
- GI50 (BT-549 breast): 14 µM
- TGI (BT-549 breast): 81.1 µM
- GI50 (SNB-19 CNS): 21.3 µM
- TGI (SNB-19 CNS): 68.6 µM
- GI50 (NCI-H226 lung): 19 µM
- TGI (NCI-H226 lung): 90.7 µM
- GI50 (IGROV1 ovarian): 13.7 µM
- TGI (IGROV1 ovarian): 44.3 µM
- GI50 (SR leukemia): 1.5 µM
- TGI (SR leukemia): 2.99 µM
- GI50 (NCI-H322M lung): 23.5 µM
- TGI (NCI-H322M lung): 73.4 µM
- GI50 (SK-MEL-28 melanoma): 14.5 µM
- TGI (SK-MEL-28 melanoma): 69.5 µM
- GI50 (MDA-MB-231 breast): 16.4 µM
- TGI (MDA-MB-231 breast): > 100 µM
- GI50 (CCRF-CEM leukemia): 4.56 µM
- TGI (CCRF-CEM leukemia): 14.9 µM
- GI50 (SW-620 colon): 5.53 µM
- TGI (SW-620 colon): 17.9 µM
- GI50 (HCC-2998 colon): 14.2 µM
- TGI (HCC-2998 colon): 36.9 µM
- GI50 (PC-3 prostate): 21 µM
- TGI (PC-3 prostate): 60.3 µM
- GI50 (UO-31 renal): 97.3 µM
- TGI (UO-31 renal): > 100 µM
- GI50 (COLO 205 colon): 9.84 µM
- TGI (COLO 205 colon): 22.8 µM
- GI50 (OVCAR-3 ovarian): 8.64 µM
- TGI (OVCAR-3 ovarian): 28 µM
- GI50 (A498 renal): 13.2 µM
- TGI (A498 renal): > 100 µM
- GI50 (NCI-H522 lung): 4.45 µM
- TGI (NCI-H522 lung): 15.5 µM
- GI50 (HT29 colon): 7.73 µM
- TGI (HT29 colon): 34.7 µM
- GI50 (HS 578T breast): 13.6 µM
- TGI (HS 578T breast): 29.2 µM
- GI50 (UACC-62 melanoma): 6.42 µM
- TGI (UACC-62 melanoma): 24.6 µM
- GI50 (SK-OV-3 ovarian): 11.5 µM
- TGI (SK-OV-3 ovarian): 25.5 µM
- GI50 (HCT-15 colon): 4.68 µM
- TGI (HCT-15 colon): 19.4 µM
- GI50 (CAKI-1 renal): 25.7 µM
- TGI (CAKI-1 renal): > 100 µM
- GI50 (NCI-H23 lung): 12.4 µM
- TGI (NCI-H23 lung): 36 µM
- GI50 (ACHN renal): 27.2 µM
- TGI (ACHN renal): > 100 µM
- GI50 (K-562 leukemia): 1.26 µM
- TGI (K-562 leukemia): 2.68 µM
- GI50 (HOP-92 NSCLC): 19.5 µM
- TGI (HOP-92 NSCLC): 68.6 µM
- GI50 (OVCAR-8 ovarian): 14.6 µM
- TGI (OVCAR-8 ovarian): 28.4 µM
- GI50 (RPMI-8226 leukemia): 4.9 µM
- TGI (RPMI-8226 leukemia): 21.7 µM
- GI50 (MALME-3M melanoma): 7.48 µM
- TGI (MALME-3M melanoma): 36.5 µM
- GI50 (TK-10 renal): 27.1 µM
- TGI (TK-10 renal): > 100 µM
- GI50 (MDA-MB-435 melanoma): 2.39 µM
- TGI (MDA-MB-435 melanoma): 5.7 µM
- GI50 (NCI-H460 NSCLC): 15.4 µM
- TGI (NCI-H460 NSCLC): 37.4 µM
- GI50 (SF-268 CNS): 19.8 µM
- TGI (SF-268 CNS): 64.1 µM
- GI50 (SN12C renal): 14.5 µM
- TGI (SN12C renal): 28.3 µM
- GI50 (RXF 393 renal): 12.4 µM
- TGI (RXF 393 renal): 34.2 µM
- GI50 (NCI/ADR-RES ovarian): 5.77 µM
- TGI (NCI/ADR-RES ovarian): 19.3 µM
- GI50 ([…]-0 renal): 18.3 µM
- TGI (786-0 renal): 61.4 µM
- GI50 (DU-145 prostate): 30.1 µM
- TGI (DU-145 prostate): > 100 µM
- GI50 (HOP-62 NSCLC): 14.4 µM
- TGI (HOP-62 NSCLC): 39.6 µM
- GI50 (SF-295 CNS): 15.6 µM
- TGI (SF-295 CNS): 62.7 µM
- GI50 (MOLT-4 leukemia): 1.87 µM
- TGI (MOLT-4 leukemia): 3.56 µM
- GI50 (A549 NSCLC): 23.3 µM
- TGI (A549 NSCLC): > 100 µM
- GI50 (SNB-75 CNS): 10.9 µM
- TGI (SNB-75 CNS): 26.8 µM
- GI50 (UACC-257 melanoma): 17.2 µM
- TGI (UACC-257 melanoma): 57.1 µM
